Like-named read-outs stand apart in the source and are kept apart here. Where only a bound is given, the exact number is not on record here.

The subject of assay [1] is phosphorylated 4E-BP1 Thr37/46 (p4E-BP1 Thr37/46), mTORC1 activity, PC3 cells. The assay can be described thus: mTOR target engagement assay, immunofluorescent cell-based, p4E-BP1 Thr37/46 readout (mTORC1 activity). Particulars: Homo sapiens, read-out: p4E-BP1 Thr37/46 IC50. Here is the method:
(§1) The target engagement of mTOR kinase inhibitors was evaluated using an immunofluorescent cell-based assay. In this assay, inhibition of mTORC1 activity was measured by the reduction in the level of phosphorylated 4E-BP1^[…] (p4E-BP1 Thr37/46), and inhibition of mTORC2 activity was measured by the reduction of phosphorylated AKT^Ser473 (pAKT S473).
PC3 cells (prostate tumor cell-line that contains a mutation in the tumor suppressor PTEN, that promotes the phosphorylation and activation of AKT and 4E-BP1) were used in the immunofluorescence assay. PC3 cells were seeded on 384 well plates (black clear bottom, Matrix #4332) overnight. PC3 cells were then treated with 40 μl of the serially diluted test compounds (in 5% fetal bovine serum, F12 medium containing 0.25% DMSO) for ninety minutes at 37° C. The test compound solution was removed, and the plates were washed gently two times with 25 μl phosphate buffered saline (PBS). The cells were fixed by adding 25 μl of Prefer reagent (from Anatech LTD, Cat#414, a glyoxal fixative for fixing proteins within a cell) for sixty minutes followed by three washes with PBS. 5% Goat serum in PBS/0.3% Triton was used to block non-specific binding (60 minutes).
The primary antibodies targeting pAKT S473 and p4E-BP1 Thr37/46 were diluted into PBS/0.3% Triton and incubated with the cells overnight at 4° C. The antibodies targeting pAKTS473 (Cat#4085, Cell signaling) and p4E-BP1 Thr37/46 (Cat#2855, Cell signaling) were used at a 1:100 dilution. Plates were washed three times with PBS/0.1% Tween 20 before adding the secondary antibody at a 1:200 dilution. (goat anti-rabbit containing a fluorescent label, Alexa Fluor 488, Cat#A11008, Invitrogen) in PBS/0.3% Triton for 60 minutes.
Finally, the plates were washed three times with PBS/0.1% Tween 20 and the fluorescent intensity was read using an Analyst HT from Molecular Devices. The fluorescent intensity values from the serially diluted compound treatment group were analyzed using the Xlfit 4 program ([…]) (Formula 205: Y=Bottom+(Top-Bottom)/(1+(IC50/X)^Hillslope) to generate the IC50 value. Where Top is the maximum signal without Compound (+DMSO only) and Bottom represents maximum inhibition. Y is the fluorescence at some compound concentration. The control used to determine the fluorescent intensities for 100% pAKT S473 or 100% phosphorylated p4E-BP1 Thr37/46 were measured from untreated wells that contained only DMSO, instead of test compound.

Assay [2] has as its system phosphorylated AKT Ser473 (pAKT S473), mTORC2 activity, PC3 cells. Kind of assay: mTOR target engagement assay, immunofluorescent cell-based, pAKT S473 readout (mTORC2 activity). Particulars: Homo sapiens. Here is the method:
as §1
PC3 cells (prostate tumor cell-line that contains a mutation in the tumor suppressor PTEN, that promotes the phosphorylation and activation of AKT and 4E-BP1) were used in the immunofluorescence assay. […] PC3 cells were then treated with 40 μl of the serially diluted test compounds (in 5% fetal bovine serum, F12 medium containing 0.25% DMSO) for ninety minutes at 37° C. The test compound solution was removed, and the plates were washed gently two times with 25 μl phosphate buffered saline (PBS). […] 5% Goat serum in PBS/0.3% Triton was used to block non-specific binding (60 minutes).
The primary antibodies targeting pAKT S473 and p4E-BP1 Thr37/46 were diluted into PBS/0.3% Triton and incubated with the cells overnight at 4° C. […] Plates were washed three times with PBS/0.1% Tween 20 before adding the secondary antibody at a 1:200 dilution.
Finally, the plates were washed three times with PBS/0.1% Tween 20 and the fluorescent intensity was read using an Analyst HT from Molecular Devices.

Setting [3] is: PC-3, PC3 cells, compound treatment ninety minutes at 37° C.

Take `CC(=O)c1c([C@@H]2C[C@H]3CC[C@@H](C2)N3C(=O)C(C)F)nc2c(-c3ccc(-c4ncc[nH]4)nc3)cnn2c1N` (stereo partly drawn) [Compound 6.23, 1-((1R,3s,5S)-3-(3-(6-(1H-imidazol-2-yl)pyridin-3-yl)-6-acetyl-7-aminopyrazolo[1,5-a]pyrimidin-5-yl)-8-azabicyclo[3.2.1]octan-8-yl)-2-fluoropropan-1-one]: the IC50 in assay [1] (PC-3, Table 6-1, PC3 cells) was 100 to 1000 nM; in assay [2] (PC-3, Table 6-1, PC3 cells), 1 to 100 nM. Take `COc1ccc(-c2ccc(-c3cnn4c(N)c(C(C)=O)c([C@@H]5C[C@H]6CC[C@@H](C5)N6C(=O)c5nnc[nH]5)nc34)cn2)c(F)c1` [Compound 1.1.47, 1-(5-((1R,3s,5S)-8-(4H-1,2,4-triazole-3-carbonyl)-8-azabicyclo[3.2.1]octan-3-yl)-7-amino-3-(6-(2-fluoro-4-methoxyphenyl)pyridin-3-yl)pyrazolo[1,5-a]pyrimidin-6-yl)ethanone]: the IC50 in assay [1] (setting [3]) and in assay [2] (setting [3]) was 1 to 100 nM in each case.

On to `C[C@@H](O)C(=O)N1[C@@H]2CC[C@H]1C[C@H](c1nc3c(-c4ccc(-c5ccccc5)nc4)cnn3c(N)c1S(C)(=O)=O)C2` [Compound 3.28, (R)-1-((1R,3S,5S)-3-(7-amino-6-(methylsulfonyl)-3-(6-phenylpyridin-3-yl)pyrazolo[1,5-a]pyrimidin-5-yl)-8-azabicyclo[3.2.1]octan-8-yl)-2-hydroxypropan-1-one], for which the IC50 lay within 100 to 1000 nM in assay [1] (PC-3, Table 3-1, PC3 cells) and 100 to 1000 nM in assay [2] (PC-3, Table 3-1, PC3 cells). As for `CS(=O)(=O)c1c([C@@H]2C[C@H]3CC[C@@H](C2)N3C(=O)c2nnc[nH]2)nc2c(-c3ccc(C4(N)CC4)c(F)c3)cnn2c1N` [Compound 8.44, ((1R,3s,5S)-3-(7-amino-3-(4-(1-aminocyclopropyl)-3-fluorophenyl)-6-(methylsulfonyl)pyrazolo[1,5-a]pyrimidin-5-yl)-8-azabicyclo[3.2.1]octan-8-yl)(4H-1,2,4-triazol-3-yl)methanone], the IC50 in assay [1] (PC-3, PC3 cells) was in the range of 1000 to 10000 nM; in assay [2] (PC-3, PC3 cells) it was 1000 to 10000 nM. With `Cc1cnc(-c2ccc(-c3cnn4c(N)c(S(C)(=O)=O)c([C@H]5CC6CC[C@H](C5)N6C(=O)c5nnc[nH]5)nc34)cn2)s1` [Compound 3.180, ((1R,3s,5S)-3-(7-amino-6-(methylsulfonyl)-3-(6-(5-methylthiazol-2-yl)pyridin-3-yl)pyrazolo[1,5-a]pyrimidin-5-yl)-8-azabicyclo[3.2.1]octan-8-yl)(4H-1,2,4-triazol-3-yl)methanone], the IC50 in assay [1] (PC-3, Table 3-1, PC3 cells) is 1 to 100 nM; in assay [2] (PC-3, Table 3-1, PC3 cells), 1 to 100 nM. Regarding `CC(=O)c1c([C@@H]2C[C@H]3CC[C@@H](C2)N3C(=O)CO)nc2c(-c3ccc(-c4ncc[nH]4)cc3)cnn2c1N` [Compound 6.42, 1-((1R,3s,5S)-3-(3-(4-(1H-imidazol-2-yl)phenyl)-6-acetyl-7-aminopyrazolo[1,5-a]pyrimidin-5-yl)-8-azabicyclo[3.2.1]octan-8-yl)-2-hydroxyethanone], the IC50 lay within 1 to 100 nM in assay [1] (PC-3, Table 6-1, PC3 cells) and 1 to 100 nM in assay [2] (PC-3, Table 6-1, PC3 cells). As for `COc1ccc(-c2ccc(-c3cnn4c(N)c(C5CC5)c([C@@H]5C[C@H]6CC[C@@H](C5)N6C(=O)c5nnc[nH]5)nc34)cn2)c(F)c1F` [Compound 4.10, ((1R,3a,5S)-3-(7-amino-6-cyclopropyl-3-(6-(2,3-difluoro-4-methoxyphenyl)pyridin-3-yl)pyrazolo[1,5-a]pyrimidin-5-yl)-8-azabicyclo[3.2.1]octan-8-yl)(4H-1,2,4-triazol-3-yl)methanone], the IC50 in assay [1] (setting [3]) and in assay [2] (setting [3]) was 1 to 100 nM in each case. As to `CS(=O)(=O)c1c([C@@H]2C[C@H]3CC[C@@H](C2)N3C(=O)CO)nc2c(-c3ccc(C(N)=O)c(F)c3)cnn2c1N` [Compound 3.156, 4-(7-amino-5-((1R,3a,5S)-8-(2-hydroxyacetyl)-8-azabicyclo[3.2.1]octan-3-yl)-6-(methylsulfonyl)pyrazolo[1,5-a]pyrimidin-3-yl)-2-fluorobenzamide], the IC50 was 1000 to 10000 nM in assay [1] (PC-3, Table 3-1, PC3 cells) and over 10000 nM in assay [2] (PC-3, Table 3-1, PC3 cells). As to `COc1ccc(-c2ncc(-c3cnn4c(N)c(S(C)(=O)=O)c([C@@H]5C[C@H]6CC[C@@H](C5)N6C(=O)c5nnc[nH]5)nc34)cn2)cc1F` [Compound 3.147, ((1R,3s,5S)-3-(7-amino-3-(2-(3-fluoro-4-methoxyphenyl)pyrimidin-5-yl)-6-(methylsulfonyl)pyrazolo[1,5-a]pyrimidin-5-yl)-8-azabicyclo[3.2.1]octan-8-yl)(4H-1,2,4-triazol-3-yl)methanone], the IC50 in assay [1] (PC-3, Table 3-1, PC3 cells) is 1000 to 10000 nM; in assay [2] (PC-3, Table 3-1, PC3 cells), 1000 to 10000 nM. With `CC(=O)c1c([C@@H]2C[C@H]3CC[C@@H](C2)N3C(=O)CO)nc2c(-c3ccc(-c4ncc(C)[nH]4)c(F)c3)cnn2c1N` [Compound 6.38, 1-((1R,3s,5S)-3-(6-acetyl-7-amino-3-(3-fluoro-4-(5-methyl-1H-imidazol-2-yl)phenyl)pyrazolo[1,5-a]pyrimidin-5-yl)-8-azabicyclo[3.2.1]octan-8-yl)-2-hydroxyethanone], the IC50 fell in the range of 100 to 1000 nM in assay [1] (PC-3, Table 6-1, PC3 cells) and 1 to 100 nM in assay [2] (PC-3, Table 6-1, PC3 cells). For the compound `CC(=O)Nc1nnc(C(=O)N2[C@@H]3CC[C@H]2C[C@H](c2nc4c(-c5ccc(-c6ccccc6)nc5)cnn4c(N)c2S(C)(=O)=O)C3)[nH]1` [Compound 3.89], the IC50 in assay [1] (PC-3, Table 3-1, PC3 cells) was 100 to 1000 nM; in assay [2] (PC-3, Table 3-1, PC3 cells) it was 100 to 1000 nM. In the case of `CS(=O)(=O)c1c([C@@H]2C[C@H]3CC[C@@H](C2)N3C(=O)c2cn[nH]c2N)nc2c(-c3ccc(-c4ccccc4)nc3)cnn2c1N` [Compound 3.90, (5-amino-1H-pyrazol-4-yl)((1R,3s,5S)-3-(7-amino-6-(methylsulfonyl)-3-(6-phenylpyridin-3-yl)pyrazolo[1,5-a]pyrimidin-5-yl)-8-azabicyclo[3.2.1]octan-8-yl)methanone], the IC50 fell in the range of 1 to 100 nM in assay [1] (PC-3, Table 3-1, PC3 cells) and 1 to 100 nM in assay [2] (PC-3, Table 3-1, PC3 cells). Turning to `COc1ccc(-c2ccc(-c3cnn4c(N)c(C(C)=O)c([C@@H]5C[C@H]6CC[C@@H](C5)N6C(=O)c5nnc(N)[nH]5)nc34)cn2)cc1F` [Compound 1.1.144, 1-(7-amino-5-((1R,3s,5S)-8-(5-amino-4H-1,2,4-triazole-3-carbonyl)-8-azabicyclo[3.2.1]octan-3-yl)-3-(6-(3-fluoro-4-methoxyphenyl)pyridin-3-yl)pyrazolo[1,5-a]pyrimidin-6-yl)ethanone], the IC50 in assay [1] (setting [3]) and in assay [2] (setting [3]) was 1 to 100 nM each time. For `COc1cc(-c2ccc(-c3cnn4c(N)c(C5CC5)c([C@@H]5C[C@H]6CC[C@@H](C5)N6C(=O)c5nnc[nH]5)nc34)cn2)ccc1F` [Compound 4.11, ((1R,3a,5S)-3-(7-amino-6-cyclopropyl-3-(6-(4-fluoro-3-methoxyphenyl)pyridin-3-yl)pyrazolo[1,5-a]pyrimidin-5-yl)-8-azabicyclo[3.2.1]octan-8-yl)(4H-1,2,4-triazol-3-yl)methanone], in assay [1] (setting [3]), the IC50 is over 10000 nM. As for `Nc1cc([C@@H]2C[C@H]3CC[C@@H](C2)N3C(=O)c2nnc[nH]2)nc2c(-c3ccc(C4(O)CCC4)nc3)cnn12` [Compound 7.44, ((1R,3s,5S)-3-(7-amino-3-(6-(1-hydroxycyclobutyl)pyridin-3-yl)pyrazolo[1,5-a]pyrimidin-5-yl)-8-azabicyclo[3.2.1]octan-8-yl)(4H-1,2,4-triazol-3-yl)methanone], the IC50 in assay [1] (PC-3, Table 7-8, PC3 cells) is 1000 to 10000 nM.

For the origin of these results see US9227971B2, “Pyrazolo[1,5-a]pyrimidine compounds as mTOR inhibitors” (Merck Sharp & Dohme Corp., priority 2010, dated 2016).
